Legend:
[1] = biological target: T1, human FPR1 (Homo sapiens, UniProt P21462); test: FPR1 cyclic adenosine monophosphate (cAMP) assay; type: cell-based; details: CHO cells overexpressing human FPR1; forskolin 10 μM; inhibition of cAMP production; HTRF; read-out: hFPR1 cAMP2 EC50
T1 sequence (P21462 1-350): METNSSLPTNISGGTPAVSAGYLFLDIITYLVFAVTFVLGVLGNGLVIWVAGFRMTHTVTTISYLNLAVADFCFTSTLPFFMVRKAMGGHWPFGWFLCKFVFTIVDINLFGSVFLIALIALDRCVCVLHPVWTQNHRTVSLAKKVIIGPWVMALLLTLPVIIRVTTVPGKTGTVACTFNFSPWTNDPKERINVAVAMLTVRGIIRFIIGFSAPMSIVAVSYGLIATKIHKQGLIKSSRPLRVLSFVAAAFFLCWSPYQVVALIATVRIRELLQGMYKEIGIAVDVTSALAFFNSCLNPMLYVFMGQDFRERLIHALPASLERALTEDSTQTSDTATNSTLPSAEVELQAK
Summary of the method: (§1)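 Gi-coupled activity is read as suppression of forskolin-stimulated cAMP (10 μM final for FPR1, 5 μM final for FPR2; IBMX 200 μM final) in recombinant CHO cells, 30 min incubation at rt, HTRF detection.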

[2] = biological target: T2, human FPR2 (Homo sapiens, UniProt P25090); test: FPR2 cyclic adenosine monophosphate (cAMP) assay; type: cell-based; details: CHO cells overexpressing human FPR2; forskolin 5 μM; inhibition of cAMP production; HTRF; read-out: hFPR2 cAMP2 EC50
T2 sequence (P25090 1-351): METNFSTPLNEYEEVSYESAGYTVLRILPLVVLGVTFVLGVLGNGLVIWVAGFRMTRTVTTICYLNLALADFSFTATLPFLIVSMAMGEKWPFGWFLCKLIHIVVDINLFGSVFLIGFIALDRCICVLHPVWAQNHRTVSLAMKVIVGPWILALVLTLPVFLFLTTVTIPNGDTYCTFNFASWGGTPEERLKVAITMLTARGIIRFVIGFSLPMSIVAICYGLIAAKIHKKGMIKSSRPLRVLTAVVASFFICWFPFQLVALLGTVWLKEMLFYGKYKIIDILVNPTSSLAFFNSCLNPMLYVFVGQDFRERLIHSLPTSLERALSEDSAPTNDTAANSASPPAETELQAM
Summary of the method: as §1

SMILES | EC50 [1] [nM] | EC50 [2] [nM]
COc1cc(OCC2CCCO2)nc(-n2c(=O)c(NC(=O)c3ccc(OC(F)F)cc3)c(-c3c(F)cc(OC)cc3F)n2C)c1 (centres unmarked) [Example 339, N-(5-(2,6-Difluoro-4-methoxyphenyl)-2-(4-methoxy-6-((tetrahydrofuran-2-yl)methoxy)pyridin-2-yl)-1-methyl-3-oxo-2,3-dihydro-1H-pyrazol-4-yl)-4-(difluoromethoxy)benzamide] | > 10000 | 8
COc1cc(C2CCCN(CCO)C2)nc(-n2c(=O)c(NC(=O)c3ccc(OC(F)F)cc3)c(-c3c(F)cc(OC)cc3F)n2C)c1 (centres unmarked) [Example 340, N-(5-(2,6-Difluoro-4-methoxyphenyl)-2-(6-(1-(2-hydroxyethyl)piperidin-3-yl)-4-methoxypyridin-2-yl)-1-methyl-3-oxo-2,3-dihydro-1H-pyrazol-4-yl)-4-(difluoromethoxy)benzamide] | > 10000 | 10
COc1cc(F)c(-c2c(NC(=O)c3ccc(OC(F)F)cc3)c(=O)n(-c3cc(C#N)cc(C(F)(F)F)n3)n2C)c(F)c1 [Example 341, N-(2-(4-Cyano-6-(trifluoromethyl)pyridin-2-yl)-5-(2,6-difluoro-4-methoxyphenyl)-1-methyl-3-oxo-2,3-dihydro-1H-pyrazol-4-yl)-4-(difluoromethoxy)benzamide] | 2600 | 10
COc1cc(C2CCCN(C)C2)nc(-n2c(=O)c(NC(=O)c3ccc(OC(F)F)cc3)c(-c3c(F)cc(OC)cc3F)n2C)c1 (centres unmarked) [Example 342, N-(5-(2,6-Difluoro-4-methoxyphenyl)-2-(4-methoxy-6-(1-methylpiperidin-3-yl)pyridin-2-yl)-1-methyl-3-oxo-2,3-dihydro-1H-pyrazol-4-yl)-4-(difluoromethoxy)benzamide] | > 10000 | 2
COc1cc(C2CCCN(C)C2)nc(-n2c(=O)c(NC(=O)c3ccc(OC(F)F)cc3)c(-c3c(F)cc(OC)cc3F)n2C)c1 (centres unmarked) [Example 343, N-(5-(2,6-Difluoro-4-methoxyphenyl)-2-(4-methoxy-6-(1-methylpiperidin-3-yl)pyridin-2-yl)-1-methyl-3-oxo-2,3-dihydro-1H-pyrazol-4-yl)-4-(difluoromethoxy)benzamide] | > 10000 | 1
COc1cc(OCC2(C)COC2)nc(-n2c(=O)c(NC(=O)c3ccc(OC(F)F)cc3)c(-c3c(F)cc(OC)cc3F)n2C)c1 [Example 344, N-(5-(2,6-Difluoro-4-methoxyphenyl)-2-(4-methoxy-6-((3-methyloxetan-3-yl)methoxy)pyridin-2-yl)-1-methyl-3-oxo-2,3-dihydro-1H-pyrazol-4-yl)-4-(difluoromethoxy)benzamide] | 2400 | 2
COc1cc(C2CCOCC2)nc(-n2c(=O)c(NC(=O)c3ccc(OC(F)F)cc3)c(-c3c(F)cc(OC)cc3F)n2C)c1 [Example 345, N-(5-(2,6-Difluoro-4-methoxyphenyl)-2-(4-methoxy-6-(tetrahydro-2H-pyran-4-yl)pyridin-2-yl)-1-methyl-3-oxo-2,3-dihydro-1H-pyrazol-4-yl)-4-(difluoromethoxy)benzamide] | > 10000 | 5
COc1cc(C2CCCNC2)nc(-n2c(=O)c(NC(=O)c3ccc(OC(F)F)cc3)c(-c3c(F)cc(OC)cc3F)n2C)c1 (centres unmarked) [Example 346, N-(5-(2,6-Difluoro-4-methoxyphenyl)-2-(4-methoxy-6-(piperidin-3-yl)pyridin-2-yl)-1-methyl-3-oxo-2,3-dihydro-1H-pyrazol-4-yl)-4-(difluoromethoxy)benzamide] | > 10000 | 5
COc1cc(C2CCCNC2)nc(-n2c(=O)c(NC(=O)c3ccc(OC(F)F)cc3)c(-c3c(F)cc(OC)cc3F)n2C)c1 (centres unmarked) [Example 347, N-(5-(2,6-Difluoro-4-methoxyphenyl)-2-(4-methoxy-6-(piperidin-3-yl)pyridin-2-yl)-1-methyl-3-oxo-2,3-dihydro-1H-pyrazol-4-yl)-4-(difluoromethoxy)benzamide] | > 10000 | 4
COc1cc(F)c(-c2c(NC(=O)c3ccc(OC(F)F)cc3)c(=O)n(-c3cc(OCCO)cc(C(F)(F)F)n3)n2C)c(F)c1 [Example 348, N-(5-(2,6-Difluoro-4-methoxyphenyl)-2-(4-(2-hydroxyethoxy)-6-(trifluoromethyl)pyridin-2-yl)-1-methyl-3-oxo-2,3-dihydro-1H-pyrazol-4-yl)-4-(difluoromethoxy)benzamide] | 2200 | 20
COc1cc(F)c(-c2c(NC(=O)c3ccc(OC(F)F)cc3)c(=O)n(-c3cc(OCC4(C)COC4)cc(C(F)(F)F)n3)n2C)c(F)c1 [Example 349, N-(5-(2,6-Difluoro-4-methoxyphenyl)-1-methyl-2-(4-((3-methyloxetan-3-yl)methoxy)-6-(trifluoromethyl)pyridin-2-yl)-3-oxo-2,3-dihydro-1H-pyrazol-4-yl)-4-(difluoromethoxy)benzamide] | 94 | 22
COc1cc(OCC2CCCO2)nc(-n2c(=O)c(NC(=O)c3ccc(OC(F)F)cc3)c(-c3c(F)cc(OC)cc3F)n2C)c1 (centres unmarked) [Example 350, N-(5-(2,6-Difluoro-4-methoxyphenyl)-2-(4-methoxy-6-((tetrahydrofuran-2-yl)methoxy)pyridin-2-yl)-1-methyl-3-oxo-2,3-dihydro-1H-pyrazol-4-yl)-4-(difluoromethoxy)benzamide] | > 10000 | 9
COc1cc(OCC2CCOC2)nc(-n2c(=O)c(NC(=O)c3ccc(OC(F)F)cc3)c(-c3c(F)cc(OC)cc3F)n2C)c1 (centres unmarked) [Example 351, N-(5-(2,6-Difluoro-4-methoxyphenyl)-2-(4-methoxy-6-((tetrahydrofuran-3-yl)methoxy)pyridin-2-yl)-1-methyl-3-oxo-2,3-dihydro-1H-pyrazol-4-yl)-4-(difluoromethoxy)benzamide] | > 10000 | 2
COc1cc(F)c(-c2c(NC(=O)c3ccc(OC(F)F)cc3)c(=O)n(-c3cc(C)cc(OCC4CCOC4)n3)n2C)c(F)c1 (centres unmarked) [Example 352, N-(5-(2,6-Difluoro-4-methoxyphenyl)-1-methyl-2-(4-methyl-6-((tetrahydrofuran-3-yl)methoxy)pyridin-2-yl)-3-oxo-2,3-dihydro-1H-pyrazol-4-yl)-4-(difluoromethoxy)benzamide] | > 10000 | 6
COc1cc(F)c(-c2c(NC(=O)c3ccc(OC(F)F)cc3)c(=O)n(-c3cc(C)cc(OCC4(C)COC4)n3)n2C)c(F)c1 [Example 353, N-(5-(2,6-Difluoro-4-methoxyphenyl)-1-methyl-2-(4-methyl-6-((3-methyloxetan-3-yl)methoxy)pyridin-2-yl)-3-oxo-2,3-dihydro-1H-pyrazol-4-yl)-4-(difluoromethoxy)benzamide] | 1600 | 2
COc1cc(N2C[C@H]3C[C@@H]2CN3C)nc(-n2c(=O)c(NC(=O)c3ccc(OC(F)F)cc3)c(-c3c(F)cc(OC)cc3F)n2C)c1 [Example 354, N-(5-(2,6-Difluoro-4-methoxyphenyl)-2-(4-methoxy-6-((1R,4R)-5-methyl-2,5-diazabicyclo[2.2.1]heptan-2-yl)pyridin-2-yl)-1-methyl-3-oxo-2,3-dihydro-1H-pyrazol-4-yl)-4-(difluoromethoxy)benzamide] | > 10000 | 2
COc1cc(OC2CCOC2)nc(-n2c(=O)c(NC(=O)c3ccc(OC(F)F)cc3)c(-c3c(F)cc(OC)cc3F)n2C)c1 (centres unmarked) [Example 355, N-(5-(2,6-Difluoro-4-methoxyphenyl)-2-(4-methoxy-6-((tetrahydrofuran-3-yl)oxy)pyridin-2-yl)-1-methyl-3-oxo-2,3-dihydro-1H-pyrazol-4-yl)-4-(difluoromethoxy)benzamide] | > 10000 | 4
COc1cc(OC2CCOC2)nc(-n2c(=O)c(NC(=O)c3ccc(OC(F)F)cc3)c(-c3c(F)cc(OC)cc3F)n2C)c1 (centres unmarked) [Example 356, N-(5-(2,6-Difluoro-4-methoxyphenyl)-2-(4-methoxy-6-((tetrahydrofuran-3-yl)oxy)pyridin-2-yl)-1-methyl-3-oxo-2,3-dihydro-1H-pyrazol-4-yl)-4-(difluoromethoxy)benzamide] | > 10000 | 5
COc1cc(F)c(-c2c(NC(=O)c3ccc(OC(F)F)cc3)c(=O)n(-c3nc(C)ccc3C#N)n2C)c(F)c1 [Example 357, N-(2-(3-Cyano-6-methylpyridin-2-yl)-5-(2,6-difluoro-4-methoxyphenyl)-1-methyl-3-oxo-2,3-dihydro-1H-pyrazol-4-yl)-4-(difluoromethoxy)benzamide] | > 10000 | 5

Reference: patent publication US12577206B2 (BRISTOL-MYERS SQUIBB COMPANY, priority 2020, dated 2026)
